Consider 17 compounds from ChEMBL document CHEMBL5150040, “Bis-aryl-α,β-unsaturated ketone (ABK) chaperonin inhibitors exhibit selective cytotoxicity to colorectal cancer cells that correlates with levels of aberrant HSP60 in the cytosol” (Bioorg Med Chem, 2022).

Data set [1] in a line: Inhibition of Escherichia coli GroEL expressed in NEB-5-alpha Escherichia coli cells/Escherichia coli GroES expressed in Escherichia coli BL21(DE3) cells assessed as inhibition of GroEL/ES-mediated dMDH refolding by reporter analysis.
Data set [2] can be described thus: Inhibition of Escherichia coli GroEL expressed in NEB-5-alpha Escherichia coli cells/Escherichia coli GroES expressed in Escherichia coli BL21(DE3) cells assessed as inhibition of GroEL/ES-mediated dRho refolding by reporter analysis.
The nature of data set [3]: Inhibition of human mitochondrial HSP60 expressed in Escherichia coli Rosetta 2 (DE3) cells/human mitochondrial HSP10 expressed in Escherichia coli Rosetta 2 (DE3) pLysS cells assessed as inhibition of […]-mediated dMDH refolding by reporter analysis. It is filed as mitochondria, Mitochondria.
Data set [4] in a line: Inhibition of refolded rhodanese reporter enzyme (unknown origin). Also on record: species or system Homo sapiens.
A short description of data set [5]: Inhibition of refolded MDH reporter enzyme (unknown origin). Also on record: species or system Homo sapiens.
Data set [6] has as its system HCT-116. Kind of data set: Cytotoxicity against human HCT-116 cells assessed as reduction in cell viability incubated for 48 hrs by AlamarBlue-based assay. It counts as functional. The settings on record: HCT-116, 48 h. For orientation: Alamar Blue is a resazurin reagent that responds to reducing activity.
Data set [7] deals with DLD-1. In words: Cytotoxicity against human DLD-1 cells assessed as reduction in cell viability incubated for 48 hrs by AlamarBlue-based assay. The settings on record: DLD-1, 48 h. It is filed as functional.
Data set [8] concerns HT-29. Kind of data set: Cytotoxicity against human HT-29 cells assessed as reduction in cell viability incubated for 48 hrs by AlamarBlue-based assay. It is filed as functional. The settings on record: HT-29, 48 h.
Data set [9] concerns HCT-116. In words: Cytotoxicity against p53-/- human HCT-116 cells assessed as reduction in cell viability incubated for 48 hrs by AlamarBlue-based assay. It counts as functional. The settings on record: HCT-116, 48 h.
Data set [10] in a line: Cytotoxicity against human FHs74Int cells assessed as reduction in cell viability incubated for 48 hrs by AlamarBlue-based assay. It counts as toxicity.
Data set [11] in a line: Cytotoxicity against human FHC cells assessed as reduction in cell viability incubated for 48 hrs by AlamarBlue-based assay. It counts as toxicity.
Data set [12] is described as follows: Selectivity index, ratio of CC50 for cytotoxicity against non-cancerous cells to EC50 for cytotoxicity against human HCT-116 cells. Particulars: non-cancerous cells versus HCT-116 cells, read-out: Ratio CC50/EC50. It is filed as toxicity, cell-based.

For orientation: IC50 means the concentration needed to halve the response being measured. The EC50 is the concentration at which the effect is half-maximal. As a reminder, the CC50 is the concentration that lowers cell viability or growth by half. As to `O=C(/C=C/c1ccccc1)c1ccc(NC(=O)c2ccccc2)cc1`, the 50% inhibitory concentration (IC50) was 4.3 µM in data set [1]; 27 µM in [2]; 5.9 µM in data set [3]; above 100 µM in data set [4]; above 63 µM in [5]. The EC50 in [6] stood at 17 µM; in data set [7], 46 µM; in data set [8], 36 µM; in data set [9], 28 µM. Moreover, the values for the CC50 at 48 h in data set [10] and in [11] were 60 µM and 73 µM, respectively. In data set [12], the selectivity ratio turned out to be 3.9.
As to `O=C(/C=C/c1ccco1)c1ccc(NC(=O)c2cccs2)cc1`, the IC50 in data set [1] was 6.7 µM; in data set [2], 9.7 µM; in data set [3], 12 µM; in data set [4] it was above 100 µM; in data set [5] it was above 63 µM. Further, the EC50 in data set [6] turned out to be 33 µM; in data set [7] it was 56 µM; in [8], 50 µM; in data set [9], 45 µM. Also, the CC50 at 48 h in [10] was found to be 68 µM; in [11], 93 µM. Further, the selectivity ratio in data set [12] is 2.4.
As to `O=C(/C=C/c1ccccc1)c1ccc(NC(=O)c2cccs2)cc1`, the IC50 in data set [1] was 3.8 µM; in data set [2] it was 20 µM; in [3], 4.7 µM; in [4], above 100 µM; in [5], above 63 µM. Moreover, the EC50 in data set [6] came to 12 µM; in [7], 35 µM; in [8] it was 28 µM; in data set [9], 16 µM. Further, the CC50 at 48 h in data set [10] was 40 µM; in data set [11], 83 µM. Further, the selectivity ratio in data set [12] was determined as 4.9.
`COc1ccc(/C=C/C(=O)c2ccccc2)cc1` [4-METHOXY CHALCONE]: the concentration for half-maximal inhibition (IC50) is 27 µM in data set [1]; 46 µM in data set [2]; 22 µM in [3]; above 100 µM in [4]; above 63 µM in data set [5]. Moreover, the EC50 in data set [6] came to 22 µM; in [7] it was 52 µM; in [8], 32 µM; in data set [9] it was 30 µM. Further, the CC50 at 48 h turned out to be 91 µM in [10] and 99 µM in [11]. Further, the selectivity ratio in data set [12] stood at 4.4.
With `OC(/C=C/c1ccccc1)c1ccccc1` (stereo unspecified), the IC50 is above 100 µM in data set [1]; above 250 µM in data set [2]; above 100 µM in [3]; above 100 µM in data set [4]; above 63 µM in [5]. Moreover, the EC50 in data set [6], in data set [7], in data set [8] and in data set [9] was above 100 µM in each case. For the same compound, the CC50 at 48 h in data set [10] and in [11] was above 100 µM each time.
With `CC(=O)Nc1ccc(C(=O)/C=C/c2cccc([N+](=O)[O-])c2)cc1`, the IC50 was 2.1 µM in [1]; 7 µM in data set [2]; 7.7 µM in data set [3]; above 100 µM in data set [4]; above 63 µM in [5]. Moreover, the EC50 stood at 1.7 µM in data set [6], 6.3 µM in data set [7], 2 µM in data set [8] and 1.8 µM in data set [9]. In addition, the CC50 at 48 h turned out to be 12 µM in data set [10] and 15 µM in data set [11]. Moreover, the selectivity ratio in data set [12] worked out at 7.9.
For `O=C(/C=C/c1ccco1)c1ccc(NC(=O)c2ccccc2)cc1`, the IC50 was 21 µM in [1]; 37 µM in [2]; 20 µM in data set [3]; above 100 µM in [4]; above 63 µM in data set [5]. Also, the EC50 in [6] came to 42 µM; in data set [7], 69 µM; in [8], 76 µM; in [9] it was 59 µM. For the same compound, the cytotoxic concentration (CC50) at 48 h in data set [10] and in data set [11] was above 100 µM each time. For the same compound, the selectivity ratio in data set [12] was found to be 2.4.
With `Nc1ccc(C(=O)/C=C/c2ccccc2)cc1`, the IC50 in data set [1] was 57 µM; in data set [2] it was 135 µM; in data set [3] it was 43 µM; in data set [4] it was above 100 µM; in data set [5] it was above 63 µM. Further, the EC50 was determined as 27 µM in data set [6], 33 µM in [7], 35 µM in data set [8] and 23 µM in data set [9]. In addition, the CC50 at 48 h was 97 µM in [10] and above 100 µM in [11]. Further, the selectivity ratio in [12] stood at 3.7.
In the case of `O=C(/C=C/c1cccc([N+](=O)[O-])c1)c1ccc(NC(=O)c2ccccc2)cc1`, the IC50 in data set [1] is 0.71 µM; in [2] it was 3.1 µM; in data set [3], 2.3 µM; in [4], above 100 µM; in data set [5], above 63 µM. Moreover, the EC50 in [6] is 4.1 µM; in data set [7], above 100 µM; in [8], 3.9 µM; in data set [9] it was 25 µM. Further, the CC50 at 48 h in data set [10] and in [11] was above 100 µM throughout. In addition, the selectivity ratio in data set [12] came out at 24.
Take `CC(=O)Nc1ccc(C(=O)/C=C/c2ccco2)cc1`: the IC50 was 41 µM in data set [1]; 67 µM in [2]; 44 µM in data set [3]; above 100 µM in data set [4]; above 63 µM in data set [5]. For the same compound, the EC50 worked out at 56 µM in data set [6], 84 µM in [7], 88 µM in data set [8] and 72 µM in data set [9]. Also, the results for the CC50 at 48 h in data set [10] and in data set [11] were 99 µM and above 100 µM, respectively. Besides, the selectivity ratio in data set [12] turned out to be 1.8.
Regarding `Nc1ccc(C(=O)/C=C/c2ccco2)cc1`, the IC50 in [1] worked out at 5.9 µM; in data set [2], 12 µM; in [3], 9.8 µM; in data set [4] it was 55 µM; in [5], 46 µM. In addition, the EC50 worked out at 21 µM in data set [6], 31 µM in data set [7], 28 µM in [8] and 24 µM in [9]. Moreover, the CC50 at 48 h in data set [10] turned out to be 86 µM; in data set [11], 90 µM. In [12], the selectivity ratio came out at 4.2.
Regarding `O=C(NCc1ccccc1)c1ccccc1`, the IC50 is above 100 µM in data set [1]; above 250 µM in [2]; above 100 µM in data set [3]; above 100 µM in [4]; above 63 µM in data set [5]. In addition, the EC50 in [6], in [7], in data set [8] and in [9] was above 100 µM throughout. The cytotoxic concentration (CC50) at 48 h in [10] and in [11] was above 100 µM throughout.
In the case of `O=C(/C=C/c1ccccc1)c1ccc(O)cc1` [4'-HYDROXYCHALCONE], the concentration for half-maximal inhibition (IC50) in data set [1] was 20 µM; in data set [2], 61 µM; in data set [3], 21 µM; in [4] it was above 100 µM; in [5], above 63 µM. Besides, the EC50 worked out at 20 µM in [6], 34 µM in [7], 30 µM in [8] and 21 µM in data set [9]. Also, the CC50 at 48 h in data set [10] was determined as 65 µM; in data set [11] it was 82 µM. For the same compound, the selectivity ratio in data set [12] was 3.7.
Take `COc1ccc(C(=O)/C=C/c2ccccc2)cc1` [4'-METHOXYCHALCONE]: the IC50 was 13 µM in [1]; 34 µM in data set [2]; 16 µM in data set [3]; above 100 µM in [4]; above 63 µM in data set [5]. Also, the EC50 was 16 µM in [6], 35 µM in data set [7], 23 µM in data set [8] and 17 µM in [9]. The CC50 at 48 h in data set [10] is 37 µM; in data set [11], 62 µM. Also, the selectivity ratio in [12] was 3.2.
Consider `O=C(CCc1ccccc1)c1ccccc1`, for which the half-maximal inhibitory concentration (IC50) in data set [1] is above 100 µM; in [2], above 250 µM; in [3] it was above 100 µM; in [4], above 100 µM; in [5], above 63 µM. The EC50 in data set [6], in data set [7], in data set [8] and in [9] was above 100 µM in each case. Further, the CC50 at 48 h in data set [10] and in [11] was above 100 µM each time.
For `O=C(/C=C/c1ccccc1)c1ccccc1` [CHALCONE], the IC50 is 7.1 µM in [1]; 27 µM in data set [2]; 8.6 µM in [3]; above 100 µM in data set [4]; above 63 µM in data set [5]. Further, the EC50 worked out at 9.5 µM in data set [6], 25 µM in [7], 14 µM in data set [8] and 11 µM in data set [9]. Moreover, the values for the CC50 at 48 h in data set [10] and in data set [11] were 46 µM and 71 µM, respectively. Further, the selectivity ratio in data set [12] is 6.2.
Consider `O=C(/C=C/c1ccc(O)cc1)c1ccccc1` [4-HYDROXYCHALCONE], for which the IC50 in [1] was 20 µM; in [2] it was 39 µM; in data set [3], 21 µM; in [4] it was above 100 µM; in data set [5], above 63 µM. In addition, the EC50 in [6] turned out to be 32 µM; in [7], 51 µM; in data set [8], 39 µM; in [9], 32 µM. The half-maximal cytotoxic concentration (CC50) at 48 h was 97 µM in [10] and above 100 µM in [11]. In data set [12], the selectivity ratio stood at 3.1.
